From US20060094755A1, “Novel quinoline-based metal chelators as antiviral agents” (Bioflexis, LLC, priority 2004, published 2006)

Assays:
IN (integrase) = molecular target: T1, IN (integrase) (Human immunodeficiency virus type 1 group M subtype B, UniProt P12497); conditions: cited from earlier work
T1 construct: HIV-1 recombinant IN (HIV-1NL4-3 Integrase, NIH AIDS Reagent program Catalog No:2959); purchased NIH AIDS Reagent program 2959

HIV = conditions: ex-vivo viral inhibition assay; cited from earlier work
HIV-1 MC99IIIBΔTat-Rev = assay: viral inhibition assay (p24 ELISA, CEM-TART cells), FIG. 4; format: cell-based; conditions: Human immunodeficiency virus 1
Text: The novel compounds of the present invention can be further evaluated for their ability to inhibit viral replication in ex-vivo assays. Most common of these include determining the viral replication in either purified human CD4+ T cell blasts infected with HIV in the presence or absence of various concentrations of inhibitors or HIV infected MT4 cell line treated with different concentration of inhibitors. A standard laboratory method in screening for inhibitors against HIV in biological assays involves the use of recombinant HIV strain that can replicate only in the supporting complementing cell line. This model system allows the examination of HIV viral replication in a biologically contained manner and is suitable for inhibitor screening. The method is described briefly below. The recombinant HIV-1 strain (HIV-1 MC99IIIBΔTat-Rev; NIH Aids Reagent Program, catalog No: 1943) is genetically engineered to replicate only in supporting recombinant cell lines (CEM-TART Cells, NIH Aids Reagent Program catalog No 1944). The construction of the recombinant mutant virus, the supporting cell line and the biological assay are described in detail elsewhere. […] The extent of viral replication can be determined by measuring the soluble viral p24 protein present in the culture supernatant collected at 24, 48, 72 and 96-hr post infection using commercial ELISA kits.

| SMILES | inhibition of 3′ processing (IN (integrase)) | inhibition of strand transfer reaction (IN (integrase)) | EC50 (HIV) | IC50 (HIV-1 MC99IIIBΔTat-Rev) |
| --- | --- | --- | --- | --- |
| O=C(O)C(=O)CC(=O)c1cc(OCc2ccccc2)cc(OCc2ccccc2)c1 [Compound 6] | do not inhibit 3′ processing | inhibit strand transfer reaction | – | – |
| O=C(O)C(=O)CC(=O)c1cccn1Cc1ccc(F)cc1 [Compound 8] | do not inhibit 3′ processing | inhibit strand transfer reaction | – | – |
| O=C(/C=C(\O)c1nn[nH]n1)c1c[nH]c2ccc(Cl)cc12 [Compound 10] | inhibit both reactions | inhibit both reactions | 0.7 µM | – |
| O=C(O)CN(CCN(CCN(CC(=O)O)CC(=O)O)Cc1ccc2cccc(O)c2n1)CC(=O)O [Compound 16] | – | – | – | 19.3 µM |
